{
  "source": "patent US11491120B2",
  "about": "“Pharmacological prophylactics against stress-induced affective disorders in females” (The Trustees of Columbia University in the City of New York, priority 2017, dated 2022)",
  "test_system": "female 129S6/SvEv mice",
  "test": "Forced swim test (FST), immobility time, after stress",
  "conditions": "for Immobility in the FST (Day 1 and Day 2) vs saline: drug administered 1 hour after 3-shock CFC stressor; for Prophylactic efficacy against stress-induced depressive-like behavior: single injection 1 week before stressor",
  "key": {"[1]": {"conditions": "Forced Swim Test Day 1, Dunnett test Sal vs. drug (30), 1 week prophylactic drug"}, "[2]": {"conditions": "Ovariectomized cohort, 1 week prophylactic drug, Forced Swim Test Day 1, OVX mice, K (10), (2R,6R)-HNK (0.025)"}, "[3]": {"conditions": "Ovariectomized cohort, 1 week prophylactic drug, Forced Swim Test Day 1, Sham mice, K (10), (2R,6R)-HNK (0.025)"}, "[4]": {"conditions": "Ovariectomized cohort, 1 week prophylactic drug, Forced Swim Test Day 1, Sham vs OVX, same drug, K (10), (2R,6R)-HNK (0.025)"}, "[5]": {"conditions": "Ovariectomized, E2/P4 replacement, 1 week prophylactic drug, Forced Swim Test Day 2, K (10), (2R,6R)-HNK (0.025), FIG. 5F"}, "[6]": {"conditions": "Ovariectomized, same drug, hormone Vehicle vs. E2/P4 replacement, 1 week prophylactic drug, Forced Swim Test Day 2, K (10), (2R,6R)-HNK (0.025), FIG. 5F"}, "[7]": {"conditions": "Sal vs. K (2.5), Fisher's PLSD, 3 day prophylactic drug/Forced Swim Test Day 1"}, "[8]": {"conditions": "Sal vs. K (10), Fisher's PLSD, 1 week prophylactic drug, learned helplessness stress, Forced Swim Test Day 1"}, "[9]": {"conditions": "Sal vs. K (10), Fisher's PLSD, 3 day prophylactic drug/Forced Swim Test Day 1"}, "[10]": {"conditions": "Sal vs. K (10), Fisher's PLSD, Antidepressant drug/Forced Swim Test Day 2"}, "[11]": {"conditions": "Sal vs. K (30), Fisher's PLSD, 3 day prophylactic drug/Forced Swim Test Day 1"}, "[12]": {"conditions": "Sham-operated females, 1 week prophylactic drug, Forced Swim Test Day 2, K (10), (2R,6R)-HNK (0.025), FIG. 5C"}, "[13]": {"conditions": "female mice, listed as (R, S)-ketamine"}},
  "note": "“Also recorded” adds a separate entry of the source.",
  "data": [
    {"compound": "CNC1(c2ccccc2Cl)CCCCC1=O", "note": "(racemic) [(R,S)-ketamine, (RS)-2-(2-chlorophenyl)-2-(methylamino)cyclohexanone]", "values": [
      {"measurement": "p, Immobility Time (min 1-6)", "setting": "[1]", "value": 0.3435},
      {"measurement": "p, Immobility Time (min 3)", "setting": "[1]", "value": 0.1617},
      {"measurement": "p, Immobility Time (min 4)", "setting": "[1]", "value": 0.9555},
      {"measurement": "p, Immobility Time (min 5)", "setting": "[1]", "value": 0.8239},
      {"measurement": "p, Immobility Time (min 6)", "setting": "[1]", "value": 0.8254},
      {"measurement": "p, Immobility Time Average (min 3-6)", "setting": "[1]", "value": 0.5081},
      {"measurement": "p, Immobility Time (min 1-6), OVX Sal vs OVX drug", "setting": "[2]", "value": 0.0920},
      {"measurement": "p, Immobility Time Average (min 3-6), Fisher's PLSD, OVX Sal vs OVX drug", "setting": "[2]", "value": 0.0570},
      {"measurement": "* (significance), Immobility Time (min 1-6), Sham Sal vs Sham drug", "setting": "[3]", "value": "* (* p<0.05)"},
      {"measurement": "* (significance), Immobility Time Average (min 3-6), Fisher's PLSD, Sham Sal vs Sham drug", "setting": "[3]", "value": "* (* p<0.05)"},
      {"measurement": "p, Immobility Time (min 1-6), Sham Sal vs Sham drug", "setting": "[3]", "value": 0.0140},
      {"measurement": "p, Immobility Time Average (min 3-6), Fisher's PLSD, Sham Sal vs Sham drug", "setting": "[3]", "value": 0.0114},
      {"measurement": "* (significance), Immobility Time Average (min 3-6), Fisher's PLSD, Sham drug vs OVX drug", "setting": "[4]", "value": "* (* p<0.05)"},
      {"measurement": "p, Immobility Time (min 1-6), Sham drug vs OVX drug", "setting": "[4]", "value": 0.0533},
      {"measurement": "p, Immobility Time Average (min 3-6), Fisher's PLSD, Sham drug vs OVX drug", "setting": "[4]", "value": 0.0233},
      {"measurement": "p, Fisher's PLSD, Immobility Time Average (min 3-6), OVX Sal vs. OVX drug", "setting": "Ovariectomized females, 1 week prophylactic drug, Forced Swim Test Day 2, K (10), (2R,6R)-HNK (0.025), FIG. 5C", "value": 0.7305},
      {"measurement": "p, Fisher's PLSD, Immobility Time Average (min 3-6), E2/P4 Sal vs. E2/P4 drug", "setting": "[5]", "value": 0.0196},
      {"measurement": "significance (*), Fisher's PLSD, Immobility Time Average (min 3-6), E2/P4 Sal vs. E2/P4 drug", "setting": "[5]", "value": "* (* p<0.05)"},
      {"measurement": "p, Fisher's PLSD, Immobility Time Average (min 3-6), Vehicle Sal vs. Vehicle drug", "setting": "Ovariectomized, hormone Vehicle, 1 week prophylactic drug, Forced Swim Test Day 2, K (10), (2R,6R)-HNK (0.025), FIG. 5F", "value": 0.9193},
      {"measurement": "p, Fisher's PLSD, Immobility Time Average (min 3-6), Vehicle drug vs. E2/P4 drug", "setting": "[6]", "value": 0.0089},
      {"measurement": "significance (*), Fisher's PLSD, Immobility Time Average (min 3-6), Vehicle drug vs. E2/P4 drug", "setting": "[6]", "value": "** (** p<0.01)"},
      {"measurement": "p, Immobility Time (min 1)", "setting": "[7]", "value": 0.9401},
      {"measurement": "p, Immobility Time (min 2)", "setting": "[7]", "value": 0.6027},
      {"measurement": "p, Immobility Time (min 3)", "setting": "[7]", "value": 0.5146},
      {"measurement": "p, Immobility Time (min 4)", "setting": "[7]", "value": 0.9632},
      {"measurement": "p, Immobility Time (min 5)", "setting": "[7]", "value": 0.6706},
      {"measurement": "p, Immobility Time (min 6)", "setting": "[7]", "value": 0.7202},
      {"measurement": "p, Immobility Time Average (min 3-6)", "setting": "[7]", "value": 0.6884},
      {"measurement": "*, Immobility Time (min 1)", "setting": "[8]", "value": "*** (*** p<0.0001)"},
      {"measurement": "*, Immobility Time (min 2)", "setting": "[8]", "value": "** (** p<0.01)"},
      {"measurement": "*, Immobility Time (min 3)", "setting": "[8]", "value": "** (** p<0.01)"},
      {"measurement": "*, Immobility Time (min 4)", "setting": "[8]", "value": "** (** p<0.01)"},
      {"measurement": "*, Immobility Time (min 5)", "setting": "[8]", "value": "** (** p<0.01)"},
      {"measurement": "*, Immobility Time (min 6)", "setting": "[8]", "value": "*** (*** p<0.0001)"},
      {"measurement": "*, Immobility Time Average (min 1-6)", "setting": "[8]", "value": "*** (*** p<0.0001)"},
      {"measurement": "p, Immobility Time (min 1)", "setting": "[8]", "value": "<0.0001"},
      {"measurement": "p, Immobility Time (min 2)", "setting": "[8]", "value": 0.0002},
      {"measurement": "p, Immobility Time (min 3)", "setting": "[8]", "value": 0.0002},
      {"measurement": "p, Immobility Time (min 4)", "setting": "[8]", "value": 0.0090},
      {"measurement": "p, Immobility Time (min 5)", "setting": "[8]", "value": 0.0016},
      {"measurement": "p, Immobility Time (min 6)", "setting": "[8]", "value": 0.0001},
      {"measurement": "p, Immobility Time Average (min 1-6)", "setting": "[8]", "value": "<0.0001"},
      {"measurement": "p, Immobility Time (min 1)", "setting": "[9]", "value": 0.9371},
      {"measurement": "p, Immobility Time (min 2)", "setting": "[9]", "value": 0.5853},
      {"measurement": "p, Immobility Time (min 3)", "setting": "[9]", "value": 0.7490},
      {"measurement": "p, Immobility Time (min 4)", "setting": "[9]", "value": 0.6033},
      {"measurement": "p, Immobility Time (min 5)", "setting": "[9]", "value": 0.9482},
      {"measurement": "p, Immobility Time (min 6)", "setting": "[9]", "value": 0.9756},
      {"measurement": "p, Immobility Time Average (min 3-6)", "setting": "[9]", "value": 0.9690},
      {"measurement": "*, Immobility Time (min 1)", "setting": "[10]", "value": "* (* p<0.05)"},
      {"measurement": "p, Immobility Time (min 1)", "setting": "[10]", "value": 0.0187},
      {"measurement": "p, Immobility Time (min 1)", "setting": "[11]", "value": 0.6395},
      {"measurement": "p, Immobility Time (min 2)", "setting": "[11]", "value": 0.9313},
      {"measurement": "p, Immobility Time (min 3)", "setting": "[11]", "value": 0.7755},
      {"measurement": "p, Immobility Time (min 4)", "setting": "[11]", "value": 0.5198},
      {"measurement": "p, Immobility Time (min 5)", "setting": "[11]", "value": 0.9023},
      {"measurement": "p, Immobility Time (min 6)", "setting": "[11]", "value": 0.5995},
      {"measurement": "p, Immobility Time Average (min 3-6)", "setting": "[11]", "value": 0.8325},
      {"measurement": "p, Fisher's PLSD, Immobility Time Average (min 3-6), Sham drug vs. OVX drug", "setting": "Same drug, Sham vs. ovariectomized, 1 week prophylactic drug, Forced Swim Test Day 2, K (10), (2R,6R)-HNK (0.025), FIG. 5C", "value": 0.2375},
      {"measurement": "p, Fisher's PLSD, Immobility Time Average (min 3-6), Sham Sal vs. Sham drug", "setting": "[12]", "value": 0.0405},
      {"measurement": "significance (*), Fisher's PLSD, Immobility Time Average (min 3-6), Sham Sal vs. Sham drug", "setting": "[12]", "value": "* (* p<0.05)"},
      {"measurement": "Immobility in the FST (Day 1 and Day 2) vs saline", "setting": "female mice", "value": "Neither (R,S)-ketamine nor (2R,6R)-HNK significantly affected immobility time"},
      {"measurement": "Immobility in the FST (Day 1 and Day 2) vs saline", "setting": "[13]", "value": "did not reduce immobility levels"},
      {"measurement": "Prophylactically effective dose in females", "setting": "female mice, 1 week before stressor", "value": 10, "unit": "mg/kg"},
      {"measurement": "Immobility in the FST vs saline", "setting": "ovariectomized mice with cyclic E2 and P4 replacement, drug 1 week before CFC, listed as (R, S)-ketamine", "value": "significantly less immobile compared to control saline mice; also recorded: significantly reduced immobility"},
      {"measurement": "Prophylactic efficacy against stress-induced depressive-like behavior", "setting": "female mice", "value": "significantly reduced stress-induced depressive-like behavior; also recorded: significantly decreased stress-induced depressive-like behavior; also recorded: effective prophylactics against a variety of stressors; also recorded: protect against stress-induced depressive-like behavior"},
      {"measurement": "Prophylactic efficacy against stress-induced depressive-like behavior", "setting": "[13]", "value": "prophylactic against stress-induced depressive-like behavior"}
    ]}
  ]
}
